Reference: PubChem BioAssay (NCI)
Values joined by “and” are separate entries in the source; they are usually repeats but may differ in a detail not shown here. Equal entries are not always repeated.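 Growth conditions: 96-well plates. Treatment: test compound, 48 hours, 5 concentrations. Analysis: linear interpolation between bracketing concentrations; unreached endpoints set to highest concentration. GI50 = concentration required for 50% inhibition of growth. TGI marks complete inhibition of growth.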

Assays:
Experiment in all cases: NCI anticancer screen, dose series, 48 h
[1] = system: SK-MEL-28 melanoma
[2] = system: SW-620 colon
[3] = system: NCI-H522 lung
[4] = system: SF-268 CNS
[5] = system: OVCAR-5 ovarian
[6] = system: HCT-116 colon
[7] = system: NCI/ADR-RES ovarian

Structure (SMILES) | GI50 [1] | TGI [1] | GI50 [2] | TGI [2] | GI50 [3] | TGI [3] | GI50 [4] | TGI [4] | GI50 [5] | TGI [5] | GI50 [6] | TGI [6] | GI50 [7] | TGI [7]
COc1cc(O)c(C(=O)/C=C/c2ccc(O)cc2)c(O)c1[C@@H]1C[C@H](CCc2ccc(O)cc2)O[C@H](c2ccc(O)cc2)C1 | 3.83 µM | 14.1 µM | 2.23 µM | 4.91 µM | 2.97 µM | 9.94 µM | 3.85 µM | 14.7 µM | 7.53 µM | 19.9 µM | 3.74 µM | 11.1 µM | 3.72 µM | 14.4 µM
C=C1CCC2C(C)(C)CCC[C@]2(C)[C@H]1CO (stereo not given in full) | > 100 µM | > 100 µM | > 100 µM | > 100 µM | 67.6 µM | > 100 µM | > 100 µM | > 100 µM | 93.5 µM | > 100 µM | 30.4 µM | > 100 µM | 60.3 µM | > 100 µM
NC(=O)c1ccc2nc(-c3ccc(Oc4ccc(Cl)cc4)cc3)[nH]c2c1 | 40.4 µM and 15.6 µM | 75 µM and 29 µM | 23 µM and 9.61 µM | 75 µM and 25.9 µM | 18.9 µM and 19.9 µM | 75 µM and 75.2 µM | 36.7 µM and 19.2 µM | 75 µM and 46.2 µM | > 75 µM and 18.6 µM | > 75 µM and 36.8 µM | 8.14 µM and 12.3 µM | 75 µM and 33.4 µM | > 75 µM and 13.3 µM | > 75 µM and 32.9 µM
COc1cc(/C=C/C(=O)c2ccc(NC(=O)CN3CCN(c4cc5c(cc4F)c(=O)c(C(=O)O)cn5C4CC4)CC3)cc2)cc(OC)c1OC | 1.42 µM | 12.7 µM | 0.485 µM | – | 0.976 µM | 3.77 µM | 1.09 µM | 20.4 µM | 2.96 µM | > 27.1 µM | 0.324 µM | 1.31 µM | > 75.9 µM | > 100 µM
CCC1CCc2nc3sc(C(=O)Nc4cccc(F)c4)c(N)c3cc2C1 (stereo not given) | > 100 µM | > 100 µM | 0.707 µM | > 100 µM | > 100 µM | > 100 µM | > 100 µM | > 100 µM | > 100 µM | > 100 µM | 2.25 µM | > 100 µM | > 100 µM | > 100 µM
COc1ccc2c(c1)n([O-])c1ccccc1[n+]2=O | – | > 100 µM | – | > 100 µM | – | 53.4 µM and 32.1 µM | 31.5 µM and 15.2 µM | > 100 µM and 53.7 µM | – | > 100 µM | – | > 100 µM | – | > 100 µM and 97.9 µM
CC(C)CCN=C(N)c1ccc(N2CCN(c3ccc(C(N)=NCCC(C)C)cc3)CC2)cc1 | 5.89 µM | 24.3 µM | 15.1 µM | 91.2 µM | 8.73 µM | 73.4 µM | 33.1 µM | > 100 µM | 38.5 µM | > 100 µM | 9.52 µM | 33.5 µM | 61.4 µM | > 100 µM
COc1ccc2c(c1)C(=O)c1c-2c(Nc2ccc(Cl)cc2)nc2ccccc12 | 19.7 µM | > 100 µM | 23.8 µM | > 100 µM | 10.1 µM | 45.5 µM | > 100 µM | > 100 µM | 22.3 µM | 84.1 µM | 5.03 µM | 24 µM | 16.6 µM | > 100 µM
